Measured values from PubChem BioAssay (NCI).
“And” between values parts separate entries of the source, which are not always exact repeats. Identical values can stand only once.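 Following 48 hours of exposure in 96-well plates, responses at five concentrations were used to interpolate endpoints linearly. At the TGI there is no net growth.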

Assays:
Test in all cases: DTP human tumour cell line panel, 48 h
NCI-H522 lung = system: NCI-H522 lung
OVCAR-8 ovarian = system: OVCAR-8 ovarian
M14 melanoma = system: M14 melanoma
U251 CNS = system: U251 CNS
HCT-15 colon = system: HCT-15 colon
HT29 colon = system: HT29 colon
UO-31 renal = system: UO-31 renal
RPMI-8226 leukemia = system: RPMI-8226 leukemia
HCC-2998 colon = system: HCC-2998 colon
K-562 leukemia = system: K-562 leukemia
SNB-75 CNS = system: SNB-75 CNS
OVCAR-3 ovarian = system: OVCAR-3 ovarian
DLD-1 colon = system: DLD-1 colon
SK-OV-3 ovarian = system: SK-OV-3 ovarian
KM12 colon = system: KM12 colon
786-0 renal = system: 786-0 renal
HS 578T breast = system: HS 578T breast
MDA-N = system: MDA-N
MCF7 breast = system: MCF7 breast
DU-145 prostate = system: DU-145 prostate

Structure (SMILES)	TGI (NCI-H522 lung)	TGI (OVCAR-8 ovarian)	TGI (M14 melanoma)	TGI (U251 CNS)	TGI (HCT-15 colon)	TGI (HT29 colon)	TGI (UO-31 renal)	TGI (RPMI-8226 leukemia)	TGI (HCC-2998 colon)	TGI (K-562 leukemia)	TGI (SNB-75 CNS)	TGI (OVCAR-3 ovarian)	TGI (DLD-1 colon)	TGI (SK-OV-3 ovarian)	TGI (KM12 colon)	TGI (786-0 renal)	TGI (HS 578T breast)	TGI (MDA-N)	TGI (MCF7 breast)	TGI (DU-145 prostate)
CC(=O)OC1COC(Nc2ccc(C(C)=O)cc2)C(OC(C)=O)C1OC(C)=O (centres undefined)	> 100 µM	> 100 µM	> 100 µM	> 100 µM	> 100 µM	> 100 µM	> 100 µM	> 100 µM	> 100 µM	> 100 µM	> 100 µM	> 100 µM	> 100 µM	> 100 µM	> 100 µM	> 100 µM	–	–	–	–
COc1ccc(C(=O)Cc2c(C(=O)c3ccccc3)c3ccccc3n2C(=O)c2ccccc2)cc1	> 100 µM	> 100 µM	> 100 µM	> 100 µM	> 100 µM	> 100 µM	> 100 µM	70.9 µM	> 100 µM	> 100 µM	99.6 µM	> 100 µM	> 100 µM	–	> 100 µM	> 100 µM	–	–	–	–
Nc1ccc2nc(Nc3ccc(F)cc3)cnc2c1	> 100 µM	> 100 µM	> 100 µM	–	> 100 µM	> 100 µM	> 100 µM	> 100 µM	> 100 µM	> 100 µM	> 100 µM	> 100 µM	> 100 µM	–	> 100 µM	> 100 µM	–	–	–	–
Clc1ccc2c(c1)C1C(CO2)C(c2ccccc2)=NN1c1ccccc1 (centres undefined)	–	> 100 µM	–	> 100 µM	–	> 100 µM	53.9 µM	47.6 µM	> 100 µM	93.8 µM	82.9 µM	> 100 µM	> 100 µM	> 100 µM	> 100 µM	> 100 µM	–	–	–	–
CCN=C(NNc1ccc([N+](=O)[O-])cc1)P(=O)(OC(C)C)OC(C)C	> 100 µM	> 100 µM	> 100 µM	> 100 µM	> 100 µM	–	> 100 µM	> 100 µM	> 100 µM	> 100 µM	> 100 µM	> 100 µM	> 100 µM	–	> 100 µM	> 100 µM	–	–	–	–
COC(=O)N1CCc2c(nc(N(C)CCO)[nH]c2=O)C1	> 100 µM	> 100 µM	> 100 µM	> 100 µM	> 100 µM	> 100 µM	> 100 µM	> 100 µM	> 100 µM	> 100 µM	> 100 µM	> 100 µM	> 100 µM	> 100 µM	> 100 µM	> 100 µM	–	–	–	–
NC(=O)C(N)=O	> 100 µM	> 100 µM	> 100 µM	> 100 µM	> 100 µM	–	> 100 µM	> 100 µM	> 100 µM	> 100 µM	–	> 100 µM	> 100 µM	> 100 µM	> 100 µM	> 100 µM	–	–	–	–
CSc1nc(Cl)c(Br)c(Sc2nc(N)nc3nc[nH]c23)n1	3.45 µM	41.9 µM	15.3 µM	16.4 µM	21.2 µM	36.8 µM	17 µM	16.4 µM	15.2 µM	13.1 µM	9.74 µM	29 µM	24.4 µM	–	19 µM	15.2 µM	–	–	–	–
Cc1ccc(C)n1-n1c(Cc2ccccc2)n[nH]c1=O	> 100 µM	> 100 µM	> 100 µM	> 100 µM	> 100 µM	> 100 µM	> 100 µM	> 100 µM	> 100 µM	> 100 µM	> 100 µM	> 100 µM	–	> 100 µM	> 100 µM	> 100 µM	> 100 µM	> 100 µM	> 100 µM	> 100 µM
CC(=O)OCC(OC(C)=O)C(OC(C)=O)C(OC(C)=O)C(C=NN(C(C)=O)S(=O)(=O)c1ccc(/C=C2\NC(=O)N(C)C2=O)cc1)OC(C)=O (centres undefined)	72.9 µM	> 100 µM and 86.7 µM	> 100 µM	66 µM and > 100 µM	61.9 µM and 67.1 µM	> 100 µM	> 100 µM	49.8 µM and 65.8 µM	32 µM and > 100 µM	> 100 µM and 57.1 µM	> 100 µM	> 100 µM	–	> 100 µM	> 100 µM	80 µM and 68.9 µM	> 100 µM	> 100 µM	> 100 µM	> 100 µM
COC1CC(OC2C(C)OC(OC3C(C)OC(OC4C(O)CC(O[C@H]5CC[C@@]6(C)C(=CC[C@]7(O)[C@@H]6C[C@@H](OC(=O)/C=C/c6ccccc6)[C@@]6(C)[C@]7(O)CC[C@@]6(O)C(C)=O)C5)OC4C)CC3OC)CC2OC)OC(C)C1O (some centres undefined)	> 6.25 µM	> 6.25 µM	> 6.25 µM	> 6.25 µM	> 6.25 µM	> 6.25 µM	> 6.25 µM	> 6.25 µM	> 6.25 µM	> 6.25 µM	> 6.25 µM	> 6.25 µM	–	> 6.25 µM	> 6.25 µM	> 6.25 µM	> 6.25 µM	> 6.25 µM	> 6.25 µM	> 6.25 µM
O=C1c2ccccc2C(=O)[C@@]23O[C@@]12C1(Oc2cccc4cccc(c24)O1)[C@@H]1O[C@@H]1[C@@H]3O	15.6 µM	12.8 µM	23.4 µM	> 47.6 µM	17.6 µM	15.2 µM	24.4 µM	> 23.1 µM	22 µM	> 29.8 µM	24 µM	12.6 µM	–	28.6 µM	27.3 µM	11.6 µM	51.8 µM	32 µM	14.6 µM	33.2 µM
COc1cc(OC)c2c(=O)cc(-c3ccccc3F)[nH]c2c1	> 100 µM	> 100 µM	> 100 µM	> 100 µM	> 100 µM	> 100 µM	84.5 µM	> 100 µM	52.3 µM	> 100 µM	> 100 µM	> 100 µM	–	> 100 µM	> 100 µM	> 100 µM	> 100 µM	> 100 µM	> 100 µM	> 100 µM
CN(C(=O)C12C3C4C1C1C4(C(=O)C45C6C7C4C4C5C6C74C)C3C12C)C(C)(C)C (centres undefined)	> 100 µM	> 100 µM	> 100 µM	> 100 µM	> 100 µM	35.1 µM	> 100 µM	–	> 100 µM	> 100 µM	> 100 µM	–	> 100 µM	> 100 µM	> 100 µM	> 100 µM	–	–	–	–
N#CCCCC[N+]12CN3CN(CN(C3)C1)C2	> 100 µM	> 100 µM	> 100 µM	> 100 µM	> 100 µM	> 100 µM	> 100 µM	> 100 µM	> 100 µM	> 100 µM	> 100 µM	> 100 µM	–	> 100 µM	> 100 µM	> 100 µM	> 100 µM	> 100 µM	> 100 µM	> 100 µM
COc1c(C)c2c(c(=O)c3c(C)cccc3n2C)c2c1c(=O)c1c(C)cccc1n2C	> 10 µM	> 10 µM	> 10 µM	> 10 µM	> 10 µM	> 10 µM	> 10 µM	> 10 µM	> 10 µM	> 10 µM	> 10 µM	> 10 µM	–	> 10 µM	> 10 µM	> 10 µM	> 10 µM	> 10 µM	> 10 µM	> 10 µM
